The values below come from ChEMBL document CHEMBL3351729, “Discovery of indanone derivatives as multi-target-directed ligands against Alzheimer's disease” (Eur J Med Chem, 2014).

Calls of active or inactive are those of the source. The rule behind the calls is not given here.

Chain of Amyloid-beta precursor protein (Homo sapiens) (P05067 whole entry): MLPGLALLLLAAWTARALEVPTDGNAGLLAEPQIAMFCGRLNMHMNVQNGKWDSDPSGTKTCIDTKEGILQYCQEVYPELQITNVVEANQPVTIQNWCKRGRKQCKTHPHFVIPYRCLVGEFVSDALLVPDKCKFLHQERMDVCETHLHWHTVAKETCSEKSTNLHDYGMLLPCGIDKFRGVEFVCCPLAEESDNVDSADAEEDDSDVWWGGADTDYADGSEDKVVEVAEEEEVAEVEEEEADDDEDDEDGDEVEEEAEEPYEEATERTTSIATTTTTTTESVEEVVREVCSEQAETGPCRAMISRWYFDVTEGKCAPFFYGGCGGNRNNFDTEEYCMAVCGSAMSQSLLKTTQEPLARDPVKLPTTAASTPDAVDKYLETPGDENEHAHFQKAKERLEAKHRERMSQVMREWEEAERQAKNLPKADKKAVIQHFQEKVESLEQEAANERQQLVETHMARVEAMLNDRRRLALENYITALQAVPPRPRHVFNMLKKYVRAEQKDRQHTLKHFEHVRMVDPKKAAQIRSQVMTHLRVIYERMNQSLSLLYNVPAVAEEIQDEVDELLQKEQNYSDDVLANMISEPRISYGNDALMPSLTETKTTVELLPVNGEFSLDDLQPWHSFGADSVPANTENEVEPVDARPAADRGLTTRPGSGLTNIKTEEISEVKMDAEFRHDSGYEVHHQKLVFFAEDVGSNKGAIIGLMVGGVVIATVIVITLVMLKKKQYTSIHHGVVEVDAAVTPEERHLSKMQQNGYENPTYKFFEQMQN
Chain of Acetylcholinesterase (Homo sapiens, UniProt P22303) (P22303 whole entry): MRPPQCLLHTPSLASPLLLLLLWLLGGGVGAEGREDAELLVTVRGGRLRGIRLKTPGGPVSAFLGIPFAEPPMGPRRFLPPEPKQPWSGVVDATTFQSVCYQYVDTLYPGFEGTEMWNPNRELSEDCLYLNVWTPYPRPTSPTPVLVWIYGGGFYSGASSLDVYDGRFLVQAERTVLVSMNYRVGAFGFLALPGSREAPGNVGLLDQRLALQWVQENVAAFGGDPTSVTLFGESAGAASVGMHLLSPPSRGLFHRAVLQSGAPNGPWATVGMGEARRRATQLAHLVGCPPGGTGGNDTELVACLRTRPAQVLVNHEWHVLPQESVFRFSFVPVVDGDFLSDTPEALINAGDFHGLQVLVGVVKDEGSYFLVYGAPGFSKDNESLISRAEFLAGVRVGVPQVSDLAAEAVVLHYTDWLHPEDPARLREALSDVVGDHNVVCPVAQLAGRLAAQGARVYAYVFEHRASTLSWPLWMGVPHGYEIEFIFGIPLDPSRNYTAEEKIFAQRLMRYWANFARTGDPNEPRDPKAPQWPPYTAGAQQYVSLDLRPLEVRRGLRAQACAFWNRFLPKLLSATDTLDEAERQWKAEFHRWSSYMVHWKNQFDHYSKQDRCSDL

For the first assay, the target named is Acetylcholinesterase (Electrophorus electricus, UniProt O42275). In words: Inhibition of electric eel AChE preincubated for 15 mins by Ellman's method.
Chain of Acetylcholinesterase (Electrophorus electricus, UniProt O42275) (O42275 whole entry): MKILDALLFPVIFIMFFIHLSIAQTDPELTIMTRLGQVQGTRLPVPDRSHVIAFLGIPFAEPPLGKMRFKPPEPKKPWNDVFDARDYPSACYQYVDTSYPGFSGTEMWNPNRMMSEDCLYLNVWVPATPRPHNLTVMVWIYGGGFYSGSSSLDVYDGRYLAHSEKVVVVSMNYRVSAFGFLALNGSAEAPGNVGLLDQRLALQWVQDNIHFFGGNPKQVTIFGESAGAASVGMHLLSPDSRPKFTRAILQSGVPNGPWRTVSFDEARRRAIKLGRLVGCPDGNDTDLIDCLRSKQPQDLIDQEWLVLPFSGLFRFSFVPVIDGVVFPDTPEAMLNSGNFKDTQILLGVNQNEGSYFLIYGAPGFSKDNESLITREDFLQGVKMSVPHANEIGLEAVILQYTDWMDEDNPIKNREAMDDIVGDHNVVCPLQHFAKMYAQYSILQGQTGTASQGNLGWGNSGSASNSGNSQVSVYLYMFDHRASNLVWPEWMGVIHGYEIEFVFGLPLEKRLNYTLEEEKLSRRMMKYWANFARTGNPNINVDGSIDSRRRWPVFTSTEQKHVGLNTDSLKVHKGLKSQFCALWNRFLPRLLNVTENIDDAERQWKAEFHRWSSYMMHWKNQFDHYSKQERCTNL
`COc1cc2c(cc1OCCN1CCCCC1)C(=O)/C(=C/c1ccc(N(C)C)cc1)C2` registered an IC50 of 16.5 nM.

As for `CCN(CC)c1ccc(/C=C2\Cc3cc(OC)c(OCCCCCN4CCCCC4)cc3C2=O)cc1`, the IC50 came to 5730 nM. Compared with the last compound, the IC50 is about 350-fold higher.

`COc1cc2c(cc1OCCCCNC1CCCCC1)C(=O)/C(=C/c1ccc(N(C)C)cc1)C2` yielded an IC50 of 9180 nM.

Regarding `COc1cc2c(cc1OCCCN1CCCCC1)C(=O)/C(=C/c1ccc(N(C)C)cc1)C2`, the IC50 amounted to 330 nM. Compared with the last compound, the IC50 is about 28-fold lower.

As for `COc1ccc(/C=C2\Cc3cc(OC)c(OCCN4CCCCC4)cc3C2=O)cc1`, the concentration for half-maximal inhibition (IC50) was found to be 14.8 nM.

On to `CNc1ccc(/C=C2\Cc3cc(OC)c(OCCN4CCCCC4)cc3C2=O)cc1`, for which the IC50 is 16.8 nM.

On to `COc1cc2c(cc1OCCCNC1CCCCC1)C(=O)/C(=C/c1ccc(N(C)C)cc1)C2`, for which the IC50 is 1540 nM.

Compound `CCCN(C)c1ccc(/C=C2\Cc3cc(OC)c(OCCN4CCCCC4)cc3C2=O)cc1` gave an IC50 of 18.6 nM.

`CCCN(CCC)c1ccc(/C=C2\Cc3cc(OC)c(OCCN4CCCCC4)cc3C2=O)cc1` showed an IC50 of 14.6 nM.

Compound `COc1cc2c(cc1OCCNC1CCCCC1)C(=O)/C(=C/c1ccc(N(C)C)cc1)C2` showed a half-maximal inhibitory concentration (IC50) of 102 nM.

As for `CCN(CC)c1ccc(/C=C2\Cc3cc(OC)c(OCCN4CCCCC4)cc3C2=O)cc1`, the IC50 is 14.8 nM. Against the preceding compound, the IC50 is about 6.9-fold lower.

Regarding `COc1cc2c(cc1OCCCCCN1CCCCC1)C(=O)/C(=C/c1ccc(N(C)C)cc1)C2`, the IC50 worked out at 1030 nM.

`CCN(C)c1ccc(/C=C2\Cc3cc(OC)c(OCCN4CCCCC4)cc3C2=O)cc1` yielded an IC50 of 25.5 nM. Against the preceding compound, the IC50 is about 40-fold lower.

In the case of `CCN(CC)c1ccc(/C=C2\Cc3cc(OC)c(OCCCN4CCCCC4)cc3C2=O)cc1`, the IC50 came to 371 nM.

The next assay has as its target Acetylcholinesterase (Homo sapiens, UniProt P22303). Description: Inhibition of human erythrocyte AChE preincubated for 15 mins by Ellman's method.
Compound `COc1cc2c(cc1OCCN1CCCCC1)C(=O)/C(=C/c1ccc(N(C)C)cc1)C2` yielded an IC50 of 285 nM.

Consider `CNc1ccc(/C=C2\Cc3cc(OC)c(OCCN4CCCCC4)cc3C2=O)cc1`, for which the IC50 was found to be 301 nM.

`CCCN(C)c1ccc(/C=C2\Cc3cc(OC)c(OCCN4CCCCC4)cc3C2=O)cc1` had an IC50 of 390 nM.

`CCCN(CCC)c1ccc(/C=C2\Cc3cc(OC)c(OCCN4CCCCC4)cc3C2=O)cc1` displayed an IC50 of 954 nM.

`CCN(CC)c1ccc(/C=C2\Cc3cc(OC)c(OCCN4CCCCC4)cc3C2=O)cc1`: the IC50 worked out at 536 nM.

As for `CCN(C)c1ccc(/C=C2\Cc3cc(OC)c(OCCN4CCCCC4)cc3C2=O)cc1`, the IC50 came out at 426 nM. The IC50 values of the last two compounds are within 1.5-fold of each other.

Another assay addresses Amyloid-beta precursor protein (Homo sapiens) (UniProt P05067). Description: Inhibition of amyloid beta (1-42) self-mediated aggregation (unknown origin) at 20 uM after 48 hrs by thioflavin T fluorescence method.
Turning to `COc1ccc(/C=C2\Cc3cc(OC)c(OCCN4CCCCC4)cc3C2=O)cc1`, the inhibition result was “inactive”.

In turn, `CCCN(C)c1ccc(/C=C2\Cc3cc(OC)c(OCCN4CCCCC4)cc3C2=O)cc1` had an inhibition of 83.8%.

`COc1cc2c(cc1OCCNC1CCCCC1)C(=O)/C(=C/c1ccc(N(C)C)cc1)C2` returned an inhibition of 84.3%.

In the case of `CCN(CC)c1ccc(/C=C2\Cc3cc(OC)c(OCCN4CCCCC4)cc3C2=O)cc1`, the inhibition worked out at 85.5%.

`CCN(C)c1ccc(/C=C2\Cc3cc(OC)c(OCCN4CCCCC4)cc3C2=O)cc1` yielded an inhibition of 85.2%.

The target is the same in the next assay. Description: Inhibition of amyloid beta (1-42) (unknown origin) fibril formation at 20 uM after 24 hrs by transmission electron microscopy.
Regarding `CCCN(C)c1ccc(/C=C2\Cc3cc(OC)c(OCCN4CCCCC4)cc3C2=O)cc1`, the inhibition entry is “Active”.

For the compound `CCN(CC)c1ccc(/C=C2\Cc3cc(OC)c(OCCN4CCCCC4)cc3C2=O)cc1`, the inhibition result was “Active”.

For a further assay the target is unchanged. Description: Disaggregation of amyloid beta (1-42) fibrils (unknown origin) at 20 uM after 24 hrs by thioflavin T fluorescence method.
Regarding `CCCN(C)c1ccc(/C=C2\Cc3cc(OC)c(OCCN4CCCCC4)cc3C2=O)cc1`, the Activity is 73.8%.

Compound `CCN(CC)c1ccc(/C=C2\Cc3cc(OC)c(OCCN4CCCCC4)cc3C2=O)cc1` registered an Activity of 65%.

A further assay shares this target. Description: Disaggregation of amyloid beta (1-42) fibrils (unknown origin) at 20 uM after 24 hrs by transmission electron microscopy.
Regarding `CCCN(C)c1ccc(/C=C2\Cc3cc(OC)c(OCCN4CCCCC4)cc3C2=O)cc1`, the outcome was Active.

Take `CCN(CC)c1ccc(/C=C2\Cc3cc(OC)c(OCCN4CCCCC4)cc3C2=O)cc1`: the outcome was Active.

For a further assay, the target named is Butyrylcholinesterase (Equus caballus, UniProt Q9N1N9).
Chain of Butyrylcholinesterase (Q9N1N9 whole entry): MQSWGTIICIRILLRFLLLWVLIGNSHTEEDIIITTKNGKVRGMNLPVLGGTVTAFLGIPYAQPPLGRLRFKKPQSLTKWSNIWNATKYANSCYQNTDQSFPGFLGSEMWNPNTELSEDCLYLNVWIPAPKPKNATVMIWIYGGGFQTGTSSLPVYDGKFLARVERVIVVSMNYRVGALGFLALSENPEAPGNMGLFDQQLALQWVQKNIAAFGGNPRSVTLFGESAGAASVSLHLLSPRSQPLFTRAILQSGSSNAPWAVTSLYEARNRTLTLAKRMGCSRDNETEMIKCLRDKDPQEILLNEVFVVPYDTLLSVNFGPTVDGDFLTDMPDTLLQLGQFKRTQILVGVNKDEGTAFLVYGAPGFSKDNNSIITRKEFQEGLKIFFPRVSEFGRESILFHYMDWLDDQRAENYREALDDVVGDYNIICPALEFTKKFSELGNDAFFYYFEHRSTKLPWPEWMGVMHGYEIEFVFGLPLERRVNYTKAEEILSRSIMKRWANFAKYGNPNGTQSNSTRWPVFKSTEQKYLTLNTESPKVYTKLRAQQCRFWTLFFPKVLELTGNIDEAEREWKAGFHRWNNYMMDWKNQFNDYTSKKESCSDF
Description: Inhibition of equine BChE preincubated for 15 mins by Ellman's method
The compound `COc1cc2c(cc1OCCN1CCCCC1)C(=O)/C(=C/c1ccc(N(C)C)cc1)C2` showed an IC50 of 1490 nM.

Take `CCN(CC)c1ccc(/C=C2\Cc3cc(OC)c(OCCCCCN4CCCCC4)cc3C2=O)cc1`: inhibition was half-maximal at 2840 nM (IC50).

Compound `COc1cc2c(cc1OCCCCNC1CCCCC1)C(=O)/C(=C/c1ccc(N(C)C)cc1)C2` came in with a 50% inhibitory concentration (IC50) of 1130 nM.

`COc1cc2c(cc1OCCCN1CCCCC1)C(=O)/C(=C/c1ccc(N(C)C)cc1)C2` displayed an IC50 of 1460 nM.

`COc1ccc(/C=C2\Cc3cc(OC)c(OCCN4CCCCC4)cc3C2=O)cc1` registered a concentration for half-maximal inhibition (IC50) of 3210 nM.

Take `CNc1ccc(/C=C2\Cc3cc(OC)c(OCCN4CCCCC4)cc3C2=O)cc1`: the IC50 worked out at 1640 nM.

For `COc1cc2c(cc1OCCCNC1CCCCC1)C(=O)/C(=C/c1ccc(N(C)C)cc1)C2`, the IC50 was 1330 nM.

Regarding `CCCN(C)c1ccc(/C=C2\Cc3cc(OC)c(OCCN4CCCCC4)cc3C2=O)cc1`, the 50% inhibitory concentration (IC50) was 1420 nM. The IC50 values of the last two compounds are within 1.5-fold of each other.

`CCCN(CCC)c1ccc(/C=C2\Cc3cc(OC)c(OCCN4CCCCC4)cc3C2=O)cc1` showed an IC50 of 1770 nM. This IC50 and that of the compound before are within 1.5-fold of each other.

Regarding `COc1cc2c(cc1OCCNC1CCCCC1)C(=O)/C(=C/c1ccc(N(C)C)cc1)C2`, it took 363 nM to reach half-maximal inhibition (IC50).

Take `CCN(CC)c1ccc(/C=C2\Cc3cc(OC)c(OCCN4CCCCC4)cc3C2=O)cc1`: 1380 nM corresponded to half-maximal inhibition (IC50).

For `COc1cc2c(cc1OCCCCCN1CCCCC1)C(=O)/C(=C/c1ccc(N(C)C)cc1)C2`, the IC50 turned out to be 2440 nM.

As for `CCN(C)c1ccc(/C=C2\Cc3cc(OC)c(OCCN4CCCCC4)cc3C2=O)cc1`, it took 1270 nM to reach half-maximal inhibition (IC50). This IC50 lies about 1.9-fold lower than the previous one.

Consider `CCN(CC)c1ccc(/C=C2\Cc3cc(OC)c(OCCCN4CCCCC4)cc3C2=O)cc1`, for which the IC50 is 2820 nM.
